Laboratory results from US20260042731A1, “(2,4-DICHLOROPHENOXY)ACETIC ACID ANALOGS” (CORTEVA AGRISCIENCE LLC, priority 2022, published 2026).
Read-outs that look alike come from different tables or passages of the source.

Legend:
[1] = tested on: weeds ABUTH, AMATA, AMBEL, CHEAL, ERICA; experiment: Postemergence herbicide evaluation, overall average % weed control across ABUTH, AMATA, AMBEL, CHEAL and ERICA; format: in vivo; settings: post-emergence, average over five weeds, read-out: Overall Ave % Weed Control; for pest or weed control at 280 g/ha: 280 g ae/ha; for pest or weed control at 560 g/ha: 560 g ae/ha
[2] = tested on: Abutilon theophrasti (ABUTH), velvetleaf; experiment: Postemergence herbicide evaluation, growth of Abutilon theophrasti (ABUTH); format: in vivo; settings: Abutilon theophrasti, post-emergence, percent reduction in plant size vs untreated control, read-out: AVE. ABUTH; for pest or weed control at 280 g/ha: 280 g ae/ha; for pest or weed control at 560 g/ha: 560 g ae/ha
[3] = tested on: Chenopodium album (CHEAL), common lambsquarters; experiment: Postemergence herbicide evaluation, growth of Chenopodium album (CHEAL); format: in vivo; settings: Chenopodium album, post-emergence, percent reduction in plant size vs untreated control, read-out: Ave. CHEAL; for pest or weed control at 280 g/ha: 280 g ae/ha; for pest or weed control at 560 g/ha: 560 g ae/ha
[4] = tested on: Amaranthus rudis (AMATA), tall water hemp; experiment: Postemergence herbicide evaluation, growth of Amaranthus rudis (AMATA); format: in vivo; settings: Amaranthus tuberculatus, post-emergence, percent reduction in plant size vs untreated control, read-out: Ave. AMATA; for pest or weed control at 280 g/ha: 280 g ae/ha; for pest or weed control at 560 g/ha: 560 g ae/ha
[5] = tested on: Ambrosia artemisiifolia (AMBEL), common ragweed; experiment: Postemergence herbicide evaluation, growth of Ambrosia artemisiifolia (AMBEL); format: in vivo; settings: Ambrosia artemisiifolia, post-emergence, percent reduction in plant size vs untreated control, read-out: AVE. AMBEL; for pest or weed control at 280 g/ha: 280 g ae/ha; for pest or weed control at 560 g/ha: 560 g ae/ha
[6] = tested on: glyphosate resistant Conyza canadensis (L.) (ERICA), horseweed; experiment: Postemergence herbicide evaluation, growth of Conyza canadensis (ERICA); format: in vivo; settings: Erigeron canadensis, post-emergence, percent reduction in plant size vs untreated control, read-out: Ave. ERICA; for pest or weed control at 280 g/ha: 280 g ae/ha; for pest or weed control at 560 g/ha: 560 g ae/ha
[7] = Volatility of compounds measured by thermogravimetric analysis (TGA); format: physicochemical; settings: value marked *: decomposition of the material was observed

O=C(COc1ccc(Cl)cc1Cl)NOC1CCCCO1 (stereo not shown) [Compound D15]
pest or weed control at 280 g/ha ([1]; 168 h, 7 DAA): 76% | pest or weed control at 560 g/ha ([1]; 168 h, 7 DAA): 83.5% | pest or weed control at 280 g/ha ([1]; 336 h, 14 DAA): 89.2% | pest or weed control at 560 g/ha ([1]; 336 h, 14 DAA): 94.9% | pest or weed control at 286 g/ha ([1]; 504 h, 286 g ae/ha, 21 DAA): 91.3% | pest or weed control at 560 g/ha ([1]; 504 h, 21 DAA): 98.9% | pest or weed control at 280 g/ha ([2]; 168 h, 7 DAA): 70% | pest or weed control at 560 g/ha ([2]; 168 h, 7 DAA): 80% | pest or weed control at 280 g/ha ([2]; 336 h, 14 DAA): 87.5% | pest or weed control at 560 g/ha ([2]; 336 h, 14 DAA): 94.5% | pest or weed control at 286 g/ha ([2]; 504 h, 286 g ae/ha, 21 DAA): 99.5% | pest or weed control at 560 g/ha ([2]; 504 h, 21 DAA): 99.5% | pest or weed control at 280 g/ha ([3]; 168 h, 7 DAA): 77.5% | pest or weed control at 560 g/ha ([3]; 168 h, 7 DAA): 82.5% | pest or weed control at 280 g/ha ([3]; 336 h, 14 DAA): 94% | pest or weed control at 560 g/ha ([3]; 336 h, 14 DAA): 97.5% | pest or weed control at 286 g/ha ([3]; 504 h, 286 g ae/ha, 21 DAA): 85% | pest or weed control at 560 g/ha ([3]; 504 h, 21 DAA): 97.5% | pest or weed control at 280 g/ha ([4]; 168 h, 7 DAA): 75% | pest or weed control at 560 g/ha ([4]; 168 h, 7 DAA): 85% | pest or weed control at 280 g/ha ([4]; 336 h, 14 DAA): 85% | pest or weed control at 560 g/ha ([4]; 336 h, 14 DAA): 95% | pest or weed control at 286 g/ha ([4]; 504 h, 286 g ae/ha, 21 DAA): 72.5% | pest or weed control at 560 g/ha ([4]; 504 h, 21 DAA): 97.5% | pest or weed control at 280 g/ha ([5]; 168 h, 7 DAA): 85% | pest or weed control at 560 g/ha ([5]; 168 h, 7 DAA): 90% | pest or weed control at 280 g/ha ([5]; 336 h, 14 DAA): 82.5% | pest or weed control at 560 g/ha ([5]; 336 h, 14 DAA): 92.5% | pest or weed control at 286 g/ha ([5]; 504 h, 286 g ae/ha, 21 DAA): 100% | pest or weed control at 560 g/ha ([5]; 504 h, 21 DAA): 100% | pest or weed control at 280 g/ha ([6]; 168 h, 7 DAA): 72.5% | pest or weed control at 560 g/ha ([6]; 168 h, 7 DAA): 80% | pest or weed control at 280 g/ha ([6]; 336 h, 14 DAA): 97% | pest or weed control at 560 g/ha ([6]; 336 h, 14 DAA): 95% | pest or weed control at 286 g/ha ([6]; 504 h, 286 g ae/ha, 21 DAA): 99.5% | pest or weed control at 560 g/ha ([6]; 504 h, 21 DAA): 100% | TGA Data (rate of weight loss, volatility) [7]: 6.9* μg/min
